Measured values from PubChem BioAssay (NCI).
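How tested: cells in 96-well plates exposed to compound for 48 hours at five concentrations. TGI is the concentration that stops growth completely.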

What was measured:
Experiment in all cases: growth of human tumour cells (NCI), 48 h
SK-MEL-28 melanoma = test system: SK-MEL-28 melanoma
NCI-H226 lung = test system: NCI-H226 lung
SF-295 CNS = test system: SF-295 CNS
SK-MEL-5 melanoma = test system: SK-MEL-5 melanoma
DMS 114 small cell lung = test system: DMS 114 small cell lung
RXF 393 renal = test system: RXF 393 renal
UACC-62 melanoma = test system: UACC-62 melanoma
LOX IMVI melanoma = test system: LOX IMVI melanoma
A498 renal = test system: A498 renal
COLO 205 colon = test system: COLO 205 colon
OVCAR-4 ovarian = test system: OVCAR-4 ovarian
SK-MEL-2 melanoma = test system: SK-MEL-2 melanoma
HL-60(TB) leukemia = test system: HL-60(TB) leukemia
OVCAR-5 ovarian = test system: OVCAR-5 ovarian
HCC-2998 colon = test system: HCC-2998 colon
EKVX NSCLC = test system: EKVX NSCLC
NCI-H522 lung = test system: NCI-H522 lung

Row | SMILES | TGI (SK-MEL-28 melanoma) | TGI (NCI-H226 lung) | TGI (SF-295 CNS) | TGI (SK-MEL-5 melanoma) | TGI (DMS 114 small cell lung) | TGI (RXF 393 renal) | TGI (UACC-62 melanoma) | TGI (LOX IMVI melanoma) | TGI (A498 renal) | TGI (COLO 205 colon) | TGI (OVCAR-4 ovarian) | TGI (SK-MEL-2 melanoma) | TGI (HL-60(TB) leukemia) | TGI (OVCAR-5 ovarian) | TGI (HCC-2998 colon) | TGI (EKVX NSCLC) | TGI (NCI-H522 lung)
1 | CC(C)=CC1CC(=[N+]=[N-])C(=O)C1(C)C (stereo not given) | > 100 µM | > 100 µM | > 100 µM | > 100 µM | > 100 µM | > 31.6 µM | > 100 µM | > 100 µM | > 100 µM | > 100 µM | > 100 µM | > 100 µM | > 100 µM | > 100 µM | > 100 µM | > 100 µM | > 100 µM
2 | CS(=O)(=O)c1ccc(-c2cc(-c3ccc(S(C)(=O)=O)cc3)[n+](-c3cc(-c4ccccc4)c([O-])c(-c4ccccc4)c3)c(-c3ccc(S(C)(=O)=O)cc3)c2)cc1 | > 100 µM | > 100 µM | > 100 µM |  | > 100 µM | > 100 µM | > 100 µM | > 100 µM | > 100 µM | > 100 µM | > 100 µM | > 100 µM |  | > 100 µM | > 100 µM | > 100 µM | > 100 µM
3 | C=CN1C(=O)[C@H](Oc2ccccc2)[C@@H]1c1ccccc1 | > 100 µM | > 100 µM | > 100 µM | > 100 µM | > 100 µM | 52.5 µM |  |  | > 100 µM |  |  | > 100 µM |  | > 100 µM | > 100 µM | > 100 µM | 91.3 µM
4 | O=C(CSc1c2ccccc2nc2ccccc12)Nc1ccccc1-c1ccccc1NC(=O)CSc1c2ccccc2nc2ccccc12 | 52 µM | > 80.5 µM | > 81.2 µM | 28.3 µM | 46.8 µM | 52 µM | 52.7 µM | 39.1 µM | > 93.4 µM | > 75 µM | > 40.3 µM | 45.3 µM | 18.7 µM | > 100 µM | 34.5 µM | > 76.6 µM | 37.2 µM
5 | COC(=O)[C@@]1(C)/C(=N/NS(=O)(=O)c2ccc(C)cc2)CCC[C@@H]1C | > 100 µM | > 100 µM | > 100 µM | > 100 µM | 45 µM | > 100 µM | > 100 µM | 27.5 µM | > 100 µM | > 100 µM | > 100 µM | > 100 µM | > 100 µM | > 100 µM | > 100 µM | > 100 µM | > 100 µM
6 | O=S(=O)(c1ccccc1)N1N=C2c3ccccc3CCC[C@H]2C1c1ccccc1 (stereo not given in full) | > 100 µM | > 100 µM | > 100 µM | > 100 µM | > 100 µM | > 100 µM | > 100 µM | > 100 µM | > 100 µM | > 100 µM | > 100 µM | > 100 µM | > 100 µM | > 100 µM | > 100 µM | > 100 µM | > 100 µM
